Patent publication US20080022467A1, “Disazo dyes and their preparation and use” (ILFORD Imaging Switzerland GmbH, priority 2006, published 2008)

Experiments:
Format in all cases: physicochemical
[1] = Light stability of printed patches (Weather-Ometer, xenon lamp); set-up: key to Light Stability (Class) on Recording Sheet A / Light Stability (Class) on Recording Sheet B / Light Stability (Class) on Recording Sheet C / Light Stability (Class) on Recording Sheet D / Light Stability (Class) on Recording Sheet E / Light Stability (Class) on Recording Sheet F / Light Stability (Class) on Recording Sheet G: A: excellent; B: good; C: satisfactory; D: unsatisfactory; settings: for Light Stability (Class) on Recording Sheet A: A: HP Printing Paper HPP 1122 (paper), 20° C., 50% relative humidity; for Light Stability (Class) on Recording Sheet A / Light Stability (Class) on Recording Sheet B / Light Stability (Class) on Recording Sheet C / Light Stability (Class) on Recording Sheet D / Light Stability (Class) on Recording Sheet E / Light Stability (Class) on Recording Sheet F / Light Stability (Class) on Recording Sheet G: 20 megalux hours; for Light Stability (Class) on Recording Sheet B: B: HP Premium Plus (polymer based); for Light Stability (Class) on Recording Sheet C: C: ILFORD Galerie Smooth Glossy (nanoporous); for Light Stability (Class) on Recording Sheet D: D: ILFORD Printasia Premium Photo Glossy Paper (nanoporous); for Light Stability (Class) on Recording Sheet E: E: ILFORD Galerie Classic Gloss Paper (polymer based); for Light Stability (Class) on Recording Sheet F: F: EPSON Premium Glossy Photo Paper (nanoporous); for Light Stability (Class) on Recording Sheet G: G: CANON Photo Paper Pro PR-101 (nanoporous); for light stability on all recording sheets (in words): summary of Table 4
Protocol: (§1) The present invention, as far as it relates to recording liquids, is illustrated by the following examples using the disazo dyes of Table 1 according to the invention and dyes representing the state of the art. For each dye, 100 g of recording liquid were prepared by heating the necessary amount of dye (2.0 g-5.0 g), 6.0 g of ethylene glycol, 3.0 g of propylene-1,2-glycol, 3.0 g of 1-methyl-2-pyrrolidone, 0.3 g of an aqueous solution (50%) of Olin® 10G (available from Arch Chemicals Inc., Norwalk, USA), 0.3 g of Surfinol® 465 (available from Air Products and Chemicals Inc., Allentown, USA) and 0.1 g of Mergal® K 10N (available from Riedel-de-Haën, Seelze, Germany) together with water at a temperature of 50° C. under stirring for approximately 1 hour. The resulting solution was cooled down to a temperature of 20° C., its value of pH was adjusted to 7.5 and the solution was passed through a Millipore® filter of 0.3 μm pore diameter. The dye quantity was adjusted in such a way that the optical density of the printed image was similar for all dyes.
(§2) Homogeneously colored square patches with an approximate density of 1.40 were then printed, using these recording liquids, with an ink jet printer Canon BJC 8500 onto the following recording sheets: • A: HP Printing Paper HPP 1122 (paper) • B: HP Premium Plus (polymer based recording sheet) • C: ILFORD Galerie Smooth Glossy (nanoporous recording sheet) • D: ILFORD Printasia Premium Photo Glossy Paper (nanoporous recording sheet) • E: ILFORD Galerie Classic Gloss Paper (polymer based recording sheet) • F: EPSON Premium Glossy Photo Paper (nanoporous recording sheet) • G: CANON Photo Paper Pro PR-101 (nanoporous recording sheet)
The printed samples were irradiated using a Weather-Ometer® Ci35A (available from Atlas Material Testing Technology, Chicago, USA) with a 6500 W xenon lamp at a temperature of 20° C. and relative humidity of 50% until an illumination of 20 megalux hours was reached. The density loss was measured with a densitometer Spectrolino®. The percent density loss of initial density gives an indication of the light stability of the dyes on the printed recording sheet.

[2] = Stability against degradation by ozone of printed patches; set-up: key: A: excellent; B: good; C: satisfactory; D: unsatisfactory; settings: ozone 1 ppm, 30° C., 50% relative humidity; for Resistance against Degradation by Ozone (Class) on Recording Sheet C: C: ILFORD Galerie Smooth Glossy (nanoporous); for Resistance against Degradation by Ozone (Class) on Recording Sheet D: D: ILFORD Printasia Premium Photo Glossy Paper (nanoporous); for Resistance against Degradation by Ozone (Class) on Recording Sheet F: F: EPSON Premium Glossy Photo Paper (nanoporous); for Resistance against Degradation by Ozone (Class) on Recording Sheet G: G: CANON Photo Paper Pro PR-101 (nanoporous)
Protocol: as §1, §2
The optical density of the colored square patches was measured with a Spectrolino® densitometer. Afterwards, the printed samples were stored for a predetermined time (for example 48 hours) in an ozone chamber, model 903 (available from Satra/Hampden, Great Britain) at a temperature of 30° C., a relative humidity of the air of 50% and an ozone concentration of 1 ppm at a velocity of the circulating, ozone containing air of 13 mm/s. After storage, the samples were re-measured. The density differences of these two measurements, expressed as per cent of the initial density, are an indication of the amount of dye loss due to the exposure to ozone.

[3] = Dye solubility (saturated aqueous solution, spectrophotometric); settings: summary of Table 2
Protocol: Dye solubility was determined with a spectrophotometer in the UV and in the visible spectral region. The spectra of the pure disazo dyes according to the invention were measured in a buffered aqueous solution at a value of pH of 7.0. Saturated aqueous solutions of the dyes were prepared at a temperature of 50° C. These solutions were afterwards cooled down to room temperature and diluted for the measurements after a waiting time of 24 hours in such a way that the absorption at the absorption maximum was between 0.8 and 1.5. This dilution factor allows the calculation of dye solubility.

Molecule | Light Stability (Class) on Recording Sheet A [1] | Light Stability (Class) on Recording Sheet B [1] | Light Stability (Class) on Recording Sheet C [1] | Light Stability (Class) on Recording Sheet D [1] | Light Stability (Class) on Recording Sheet E [1] | Light Stability (Class) on Recording Sheet F [1] | Light Stability (Class) on Recording Sheet G [1] | Resistance against Degradation by Ozone (Class) on Recording Sheet C [2] | Resistance against Degradation by Ozone (Class) on Recording Sheet D [2] | Resistance against Degradation by Ozone (Class) on Recording Sheet F [2] | Resistance against Degradation by Ozone (Class) on Recording Sheet G [2] | solubility (in words) [3] | light stability on all recording sheets (in words) [1]
CN(CCS(=O)(=O)[O-])c1nc(Nc2ccc(N=Nc3ccc4cc(S(=O)(=O)[O-])cc(S(=O)(=O)[O-])c4c3)cc2)nc(Nc2ccc(N=Nc3ccc4cc(S(=O)(=O)[O-])cc(S(=O)(=O)[O-])c4c3)cc2)n1.[Na+].[Na+].[Na+].[Na+].[Na+] [Dye No. 17] | B | A | A | B | B | B | B | B | A | A | A | – | –
O=C([O-])c1cc(Nc2nc(Nc3ccc(N=Nc4cc(S(=O)(=O)[O-])c5cccc(S(=O)(=O)[O-])c5c4)cc3)nc(Nc3ccc(N=Nc4cc(S(=O)(=O)[O-])c5cccc(S(=O)(=O)[O-])c5c4)cc3)n2)cc(C(=O)[O-])c1.[Na+].[Na+].[Na+].[Na+].[Na+].[Na+] [Dye No. 18] | B | A | B | B | B | B | B | A | A | A | A | – | –
O=S(=O)([O-])c1cc(/N=N/c2ccc(Nc3nc(NCCO)nc(Nc4ccc(/N=N/c5cc(S(=O)(=O)[O-])c6cccc(S(=O)(=O)[O-])c6c5)cc4)n3)cc2)cc2c(S(=O)(=O)[O-])cccc12.[Na+].[Na+].[Na+].[Na+] [Dye No. I, reference compound] | A | A | B | B | B | A | B | A | B | A | A | – | excellent or good light stability

The next lines start with results.

Light Stability (Class) on Recording Sheet A [1] | Light Stability (Class) on Recording Sheet B [1] | Light Stability (Class) on Recording Sheet C [1] | Light Stability (Class) on Recording Sheet D [1] | Light Stability (Class) on Recording Sheet E [1] | Light Stability (Class) on Recording Sheet F [1] | Light Stability (Class) on Recording Sheet G [1] | Resistance against Degradation by Ozone (Class) on Recording Sheet C [2] | Resistance against Degradation by Ozone (Class) on Recording Sheet D [2] | Resistance against Degradation by Ozone (Class) on Recording Sheet F [2] | Resistance against Degradation by Ozone (Class) on Recording Sheet G [2] | solubility (in words) [3] | Molecule | light stability on all recording sheets (in words) [1]
B | D | B | B | B | A | A | A | B | A | A | – | Cc1cc(Nc2nc(NCCO)nc(Nc3ccc(/N=N/c4cc(S(=O)(=O)[O-])c5cccc(S(=O)(=O)[O-])c5c4)c(C)c3)n2)ccc1/N=N/c1cc(S(=O)(=O)[O-])c2cccc(S(=O)(=O)[O-])c2c1.[Na+].[Na+].[Na+].[Na+] [Dye No. II, Direct Yellow 86, reference compound] | satisfactory or even unsatisfactory light stability
C | A | D | C | C | B | B | A | B | A | A | equally high water solubility | O=S(=O)([O-])c1cc(/N=N/c2ccc(Nc3nc(NCCCN4CCOCC4)nc(Nc4ccc(/N=N/c5cc(S(=O)(=O)[O-])c6cccc(S(=O)(=O)[O-])c6c5)cc4)n3)cc2)cc2c(S(=O)(=O)[O-])cccc12.[Na+].[Na+].[Na+].[Na+] [Dye No. IV, reference compound] | satisfactory or even unsatisfactory light stability
C | A | B | B | B | B | B | D | B | C | C | – | Direct Yellow 132 [Dye No. III, reference compound] | satisfactory or even unsatisfactory light stability
